Reference: US4668627A, “Novel antibiotic compound” (Kureha Kagaku Kogyo Kabushiki Kaisha, priority 1982, dated 1987)
Converted amounts (≈) assume the structure as drawn.

Assays:
[1] = test system: Peptostreptococcus parvulus; test: MIC, agar dilution, nutrient agar medium; format: cell-based; settings: Lancefieldella parvula
[2] = test system: Corynebacterium equi IFO 3730; test: MIC, agar dilution, nutrient agar medium; format: cell-based; settings: Rhodococcus (subgen. Prescottella) equi, IFO3730
[3] = test system: Mycobacterium avium IFO 3082; test: MIC, agar dilution, nutrient agar medium; format: cell-based; settings: IFO3082
[4] = test system: Epidermophyton floccosum IFO 9045; test: MIC, agar dilution, nutrient agar medium; format: cell-based; settings: IFO9045
Bacteroides fragilis = test: MIC, agar dilution, nutrient agar medium; format: cell-based
[5] = solubility in organic solvents; format: physicochemical
[6] = test system: Corynebacterium faciens IAM 1079; test: MIC, agar dilution, nutrient agar medium; format: cell-based; settings: IAM1079
[7] = test system: Vibrio-metshnikov IAM 1039; test: MIC, agar dilution, nutrient agar medium; format: cell-based
Peptococcus aerogenes = test: MIC, agar dilution, nutrient agar medium; format: cell-based; settings: Peptoniphilus asaccharolyticus
[8] = test system: Penicillium funiculosum IFO 6345; test: MIC, agar dilution, nutrient agar medium; format: cell-based; settings: Talaromyces funiculosus, IFO6345
[9] = test system: Lactobacillus acidophilus; test: MIC, agar dilution, nutrient agar medium; format: cell-based
[10] = test system: Proteus vulgaris IFO 3167; test: MIC, agar dilution, nutrient agar medium; format: cell-based; settings: IFO3167
[11] = test system: Klebsiella pneumoniae IFO 12015; test: MIC, agar dilution, nutrient agar medium; format: cell-based; settings: IFO12015
[12] = test system: Xanthomonas oryzae IAM 1657; test: microbe, parasite or virus in culture; format: cell-based; settings: IAM1657
[13] = test system: Candida albicans IAM 4905; test: MIC, agar dilution, nutrient agar medium; format: cell-based; settings: IAM4905
Erwinia aroidae IAM 1068 = test: MIC, agar dilution, nutrient agar medium; format: cell-based; settings: IAM1068
[14] = test system: Aspergillus fumigatus IAM 2155; test: MIC, agar dilution, nutrient agar medium; format: cell-based; settings: IAM2155
[15] = test system: Proteus inconstans IFO 12930; test: MIC, agar dilution, nutrient agar medium; format: cell-based; settings: Providencia alcalifaciens, IFO12930
[16] = test system: Peptostreptococcus micros; test: MIC, agar dilution, nutrient agar medium; format: cell-based; settings: Parvimonas micra
Saccharomyces cerevisiae = test: MIC, agar dilution, nutrient agar medium; format: cell-based
Pseudomonas putida T-2 = test: MIC, agar dilution, nutrient agar medium; format: cell-based; settings: T2
[17] = test system: Pseudomonas fluorescens IFO 3903; test: MIC, agar dilution, nutrient agar medium; format: cell-based; settings: IFO3903
[18] = test system: Staphylococcus aureus 209 p; test: MIC, agar dilution, nutrient agar medium; format: cell-based
[19] = test system: Micrococcus lysodeikticus; test: MIC, agar dilution, nutrient agar medium; format: cell-based; settings: Micrococcus luteus
[20] = test system: Micrococcus luteus PCI 1001; test: MIC, agar dilution, nutrient agar medium; format: cell-based; settings: PCI1001
Pseudomonas ovalis = test: MIC, agar dilution, nutrient agar medium; format: cell-based; settings: Pseudomonas putida
[21] = test system: Salmonella abortusequi ATCC 9842; test: MIC, agar dilution, nutrient agar medium; format: cell-based; settings: Salmonella enterica, ATCC9842
[22] = test system: Aspergillus oryzae IAM 2732; test: MIC, agar dilution, nutrient agar medium; format: cell-based; settings: IAM2732
[23] = test system: Bacillus subtilis PCI 219; test: MIC, agar dilution, nutrient agar medium; format: cell-based; settings: PCI219
[24] = test system: Aspergillus niger IFO 6342; test: MIC, agar dilution, nutrient agar medium; format: cell-based; settings: IFO6342
[25] = test system: Pseudomonas aeruginosa IFO 3080; test: MIC, agar dilution, nutrient agar medium; format: cell-based; settings: IFO3080
[26] = test system: Trichophyton interdigitale; test: MIC, agar dilution, nutrient agar medium; format: cell-based
Salmonella anatum 1 = test: MIC, agar dilution, nutrient agar medium; format: cell-based; settings: Salmonella enterica
[27] = test system: Bifidobacterium adolescentis; test: MIC, agar dilution, nutrient agar medium; format: cell-based
mouse = test: acute toxicity to mouse, intraperitoneal; format: in vivo; settings: intraperitoneally, 100 mg/kg
[28] = test system: Serratia marcescens IAM 1065; test: MIC, agar dilution, nutrient agar medium; format: cell-based; settings: IAM1065
[29] = test system: Vibrio tyrogenes IAM 1080; test: MIC, agar dilution, nutrient agar medium; format: cell-based; settings: IAM1080
[30] = test system: Trichophyton rubrum IFO 5467; test: MIC, agar dilution, nutrient agar medium; format: cell-based; settings: IFO5467
[31] = test system: Proteus mirabilis IFO 3849; test: MIC, agar dilution, nutrient agar medium; format: cell-based; settings: IFO3849
[32] = test system: Fusobacterium necrophorum; test: MIC, agar dilution, nutrient agar medium; format: cell-based
Eubacterium aerofaciens = test: MIC, agar dilution, nutrient agar medium; format: cell-based; settings: Collinsella aerofaciens
[33] = test system: Escherichia coli K-12 IAM 1264; test: MIC, agar dilution, nutrient agar medium; format: cell-based; settings: IAM1264
[34] = test system: Streptococcus pyogenes IFO 3340; test: MIC, agar dilution, nutrient agar medium; format: cell-based; settings: IFO3340
[35] = test system: Microsporum gypseum IFO 5948; test: MIC, agar dilution, nutrient agar medium; format: cell-based; settings: Nannizzia gypsea, IFO5948
[36] = test system: Citrobacter freundii IFO 12681; test: MIC, agar dilution, nutrient agar medium; format: cell-based; settings: IFO12681
[37] = test system: various gram-positive and gram-negative bacteria; test: antibacterial activity (general statement); format: cell-based
[38] = test system: Proteus morganii IFO 3168; test: MIC, agar dilution, nutrient agar medium; format: cell-based; settings: Morganella morganii, IFO3168
[39] = test system: Aerobacter aerogenes ATCC 8724; test: MIC, agar dilution, nutrient agar medium; format: cell-based; settings: Klebsiella aerogenes, ATCC8724

Structure (SMILES): [C-]#[N+]C12CC3(/C=C/C(=O)O)OC3C1O2 (stereo not shown) [Antibiotic No. 2188, 3-(6-isocyano-3,7-dioxatricyclo[4.1.0.0^2,4]hept-4-yl)propenoic acid]
- MIC [1]: 50 µg/mL (≈ 259 µM)
- MIC [2]: 6.25 µg/mL (≈ 32.4 µM)
- MIC [3]: 12.5 µg/mL (≈ 64.7 µM)
- MIC [4]: 50 µg/mL (≈ 259 µM)
- MIC (Bacteroides fragilis): 50 µg/mL (≈ 259 µM)
- solubility ([5]; hexane and petroleum ether): insoluble
- solubility ([5]; methanol, ethanol, acetone, ethyl acetate, chloroform and benzene): soluble
- MIC [6]: 12.5 µg/mL (≈ 64.7 µM)
- MIC [7]: 1.6 µg/mL (≈ 8.28 µM)
- MIC (Peptococcus aerogenes): 25 µg/mL (≈ 129 µM)
- MIC [8]: 200 µg/mL (≈ 1040 µM)
- MIC [9]: 200 µg/mL (≈ 1040 µM)
- MIC [10]: 12.5 µg/mL (≈ 64.7 µM)
- MIC [11]: 50 µg/mL (≈ 259 µM)
- MIC [12]: 50 µg/mL (≈ 259 µM)
- MIC [13]: > 200 µg/mL
- MIC (Erwinia aroidae IAM 1068): 25 µg/mL (≈ 129 µM)
- MIC [14]: 100 µg/mL (≈ 518 µM)
- MIC [15]: 50 µg/mL (≈ 259 µM)
- MIC [16]: 25 µg/mL (≈ 129 µM)
- MIC (Saccharomyces cerevisiae): > 200 µg/mL
- MIC (Pseudomonas putida T-2): 6.25 µg/mL (≈ 32.4 µM)
- MIC [17]: 12.5 µg/mL (≈ 64.7 µM)
- MIC [18]: 6.25 µg/mL (≈ 32.4 µM)
- MIC [19]: 6.25 µg/mL (≈ 32.4 µM)
- MIC [20]: 6.25 µg/mL (≈ 32.4 µM)
- MIC (Pseudomonas ovalis): > 100 µg/mL
- MIC [21]: 12.5 µg/mL (≈ 64.7 µM)
- MIC [22]: > 200 µg/mL
- MIC [23]: 12.5 µg/mL (≈ 64.7 µM)
- MIC [24]: > 200 µg/mL
- MIC [25]: 100 µg/mL (≈ 518 µM)
- MIC [26]: 100 µg/mL (≈ 518 µM)
- MIC (Salmonella anatum 1): 12.5 µg/mL (≈ 64.7 µM)
- MIC [27]: 200 µg/mL (≈ 1040 µM)
- acute toxicity (mouse): no acute toxicity
- MIC [28]: > 100 µg/mL
- MIC [29]: 3.1 µg/mL (≈ 16 µM)
- MIC [30]: 50 µg/mL (≈ 259 µM)
- MIC [31]: 50 µg/mL (≈ 259 µM)
- MIC [32]: 50 µg/mL (≈ 259 µM)
- MIC (Eubacterium aerofaciens): > 200 µg/mL
- MIC [33]: 12.5 µg/mL (≈ 64.7 µM)
- MIC [34]: 6.25 µg/mL (≈ 32.4 µM)
- MIC [35]: 100 µg/mL (≈ 518 µM)
- MIC [36]: 12.5 µg/mL (≈ 64.7 µM)
- antibacterial activity [37]: shows an antibacterial activity against various gram-positive and gram-negative bacteria
- MIC [38]: 12.5 µg/mL (≈ 64.7 µM)
- MIC [39]: 50 µg/mL (≈ 259 µM)
